ChEMBL document CHEMBL1201862, “PubChem BioAssay data set” (2004)
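Compound exposure: 48 hours, 5 concentrations, 96-well plates. The concentration for 50% growth inhibition is given as GI50.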 Calls of active or inactive are those of the source. Cut-off read from the data, not from the text of the source: active = GI50 up to about 1.1 µM and inactive = higher.

How the values were obtained:
Experiment in all cases: NCI-60 cell line screen, 48 h
CCRF-CEM = system: CCRF-CEM
COLO 205 = system: COLO 205
HCT-116 = system: HCT-116
HCT-15 = system: HCT-15
LOX IMVI = system: LOX IMVI
MOLT-4 = system: MOLT-4
NCI-H226 = system: NCI-H226
NCI-H522 = system: NCI-H522
RXF 393 = system: RXF 393
SF-295 = system: SF-295
SK-MEL-28 = system: SK-MEL-28
SN12C = system: SN12C
SNB-75 = system: SNB-75
SR = system: SR
SW-620 = system: SW-620
CAKI-1 = system: CAKI-1
EKVX = system: EKVX
HOP-62 = system: HOP-62
OVCAR-3 = system: OVCAR-3
UACC-62 = system: UACC-62

Row | SMILES | GI50 (CCRF-CEM) | GI50 (COLO 205) | GI50 (HCT-116) | GI50 (HCT-15) [µM] | GI50 (LOX IMVI) | GI50 (MOLT-4) | GI50 (NCI-H226) | GI50 (NCI-H522) | GI50 (RXF 393) | GI50 (SF-295) | GI50 (SK-MEL-28) | GI50 (SN12C) | GI50 (SNB-75) | GI50 (SR) | GI50 (SW-620) | GI50 (CAKI-1) | GI50 (EKVX) | GI50 (HOP-62) | GI50 (OVCAR-3) | GI50 (UACC-62)
1 | Cc1ccc(S(=O)(=O)NCCSS(=O)(=O)c2ccc(C)cc2)cc1 | 24.3 µM (inactive) | 56 µM (inactive) | 15.1 µM (inactive) | 18.7 | 33.4 µM (inactive) | 26.8 µM (inactive) | 24.3 µM (inactive) | 18.2 µM (inactive) | 33.8 µM (inactive) | 35.6 µM (inactive) | 31.7 µM (inactive) | 29.7 µM (inactive) | 30.4 µM (inactive) | 13.9 µM (inactive) | 19.5 µM (inactive) |  |  |  |  | 
2 | O=C(CCCn1cnc([N+](=O)[O-])n1)NCCn1ccnc1[N+](=O)[O-] | > 100 µM (inactive) | > 100 µM (inactive) |  | > 100 | > 100 µM (inactive) | > 100 µM (inactive) | > 100 µM (inactive) | > 100 µM (inactive) | > 100 µM (inactive) | > 100 µM (inactive) | > 100 µM (inactive) |  | > 100 µM (inactive) | > 100 µM (inactive) | > 100 µM (inactive) | > 100 µM (inactive) | > 100 µM (inactive) | > 100 µM (inactive) | > 100 µM (inactive) | > 100 µM (inactive)
3 | Nc1nc2ccc3ccccc3c2[nH]1 | > 10 µM (inactive) | > 10 µM (inactive) | > 10 µM (inactive) | > 10 | > 10 µM (inactive) | > 10 µM (inactive) | 8.51 µM (inactive) | > 10 µM (inactive) | > 10 µM (inactive) | > 10 µM (inactive) | > 10 µM (inactive) | > 10 µM (inactive) | > 10 µM (inactive) | > 10 µM (inactive) | > 10 µM (inactive) | > 10 µM (inactive) | > 10 µM (inactive) | > 10 µM (inactive) | > 10 µM (inactive) | > 10 µM (inactive)
4 | CN(C)CCOc1cc2c(c3ccccc13)-c1ccccc1C2O (configuration not stated) | 14.1 µM (inactive) | 12.5 µM (inactive) | 13.2 µM (inactive) | 12.4 | 10.2 µM (inactive) | 3.33 µM (inactive) | 13.7 µM (inactive) | 16 µM (inactive) | 1.47 µM (inactive) | 13.5 µM (inactive) | 16 µM (inactive) | 13.4 µM (inactive) | 10.3 µM (inactive) |  | 12.4 µM (inactive) | 12.9 µM (inactive) | 14.8 µM (inactive) | 14.9 µM (inactive) | 15.6 µM (inactive) | 17.2 µM (inactive)
5 | COc1cc([C@@H]2c3cc4c(cc3[C@H](O)[C@H]3COC(=O)[C@H]23)OCO4)cc(OC)c1OC [PODOFILOX] | < 0.005 µM (active) | < 0.005 µM (active) | < 0.005 µM (active) |  | < 0.005 µM (active) | < 0.005 µM (active) | < 0.005 µM (active) |  |  | < 0.005 µM (active) | < 0.005 µM (active) |  |  | < 0.005 µM (active) | < 0.005 µM (active) | 0.0897 µM (active) |  |  |  | < 0.005 µM (active)
6 | COC(=O)CN(C)P(=O)(N1CC1)N1CC1 | 36.9 µM (inactive) | > 100 µM (inactive) |  | > 100 | 76 µM (inactive) | 33 µM (inactive) |  | > 100 µM (inactive) | > 100 µM (inactive) | 90.2 µM (inactive) | > 100 µM (inactive) | 69.5 µM (inactive) | > 100 µM (inactive) |  | > 100 µM (inactive) | > 100 µM (inactive) | > 100 µM (inactive) |  |  | 90.2 µM (inactive)
7 | CSC1SCC2C(=O)N(C)C(C(C)C)C(=O)OCC(NC(=O)c3cnc4ccccc4n3)C(=O)NC(C)C(=O)N(C)C1C(=O)N(C)C(C(C)C)C(=O)OCC(NC(=O)c1cnc3ccccc3n1)C(=O)NC(C)C(=O)N2C (configuration not stated) | 0.00925 µM (active) | 0.0075 µM (active) | 0.00885 µM (active) | 0.0101 |  | 0.0075 µM (active) | 0.0075 µM (active) |  | 0.00895 µM (active) | 0.0075 µM (active) |  | 0.0075 µM (active) |  | 0.000171 µM (active) | 0.0075 µM (active) | 0.0075 µM (active) | 0.0075 µM (active) | 0.0075 µM (active) | 0.0075 µM (active) | 
8 | CS(C)(=O)=Nn1c(=O)n2n(c1=O)C1c3ccccc3C2c2ccccc21 | > 100 µM (inactive) | > 100 µM (inactive) |  | > 100 | > 100 µM (inactive) | > 100 µM (inactive) |  | > 100 µM (inactive) | > 100 µM (inactive) | > 100 µM (inactive) | > 100 µM (inactive) |  |  | > 100 µM (inactive) | > 100 µM (inactive) | > 100 µM (inactive) | > 100 µM (inactive) | > 100 µM (inactive) | > 100 µM (inactive) | > 100 µM (inactive)
9 | CN(C)C(=O)Oc1c(Br)cc(Br)cc1C(=O)OCc1ccccc1 | 19.3 µM (inactive) | 18.3 µM (inactive) | 14.5 µM (inactive) | 26.2 | 22.8 µM (inactive) | 17.5 µM (inactive) | 28.7 µM (inactive) | 34.8 µM (inactive) | 38.4 µM (inactive) | 20.9 µM (inactive) | 40.2 µM (inactive) | 20.8 µM (inactive) | 32 µM (inactive) |  | 41.1 µM (inactive) | 23.3 µM (inactive) | 35.6 µM (inactive) | 28.2 µM (inactive) | 19.1 µM (inactive) | 15.7 µM (inactive)
10 | O=C1CCCC/C1=C1/SC(=N/c2ccccc2)/C(=N\c2ccccc2)N1c1ccccc1 | > 100 µM (inactive) | > 100 µM (inactive) | > 100 µM (inactive) | > 100 |  | 34.2 µM (inactive) | 23.4 µM (inactive) | > 100 µM (inactive) | 0.0378 µM (active) | 86.3 µM (inactive) | > 100 µM (inactive) | > 100 µM (inactive) | 69.5 µM (inactive) | > 100 µM (inactive) |  | > 100 µM (inactive) |  | 36.1 µM (inactive) | 40.4 µM (inactive) | 38.1 µM (inactive)
11 | O=c1c(-c2ccccc2)c(SCCN2CCOCC2)n(-c2ccccc2)c(=S)n1-c1ccccc1 | > 100 µM (inactive) | > 100 µM (inactive) |  | > 100 | > 100 µM (inactive) | > 100 µM (inactive) | 35.3 µM (inactive) | 51.5 µM (inactive) | 46.9 µM (inactive) | 83.6 µM (inactive) | > 100 µM (inactive) |  | 26.4 µM (inactive) | > 100 µM (inactive) | > 100 µM (inactive) | 52 µM (inactive) | > 100 µM (inactive) | 74 µM (inactive) | > 100 µM (inactive) | 89.1 µM (inactive)
12 | O=C(NNC(=S)Nc1ccccc1)c1nsc2ccccc12 | 0.36 µM (active) | 39.7 µM (inactive) | 25.2 µM (inactive) | 10.7 | 23.7 µM (inactive) | 20.7 µM (inactive) |  |  | 40.7 µM (inactive) |  | 34.6 µM (inactive) | 31.5 µM (inactive) | 25.1 µM (inactive) | 22 µM (inactive) | 40.6 µM (inactive) |  | 25.2 µM (inactive) | 36.7 µM (inactive) | 10.3 µM (inactive) | 26.2 µM (inactive)
13 | C1CSCCSCCSCCSC1 |  | > 100 µM (inactive) | > 100 µM (inactive) | > 100 | > 100 µM (inactive) | > 100 µM (inactive) | > 100 µM (inactive) | > 100 µM (inactive) | > 100 µM (inactive) | > 100 µM (inactive) | > 100 µM (inactive) | > 100 µM (inactive) | > 100 µM (inactive) |  | > 100 µM (inactive) | > 100 µM (inactive) | > 100 µM (inactive) | > 100 µM (inactive) | > 100 µM (inactive) | > 100 µM (inactive)
14 | COc1ccc(/N=C\c2ccc(N(CCC#N)S(=O)(=O)c3ccccc3)cc2C)cc1 | 30.2 µM (inactive) | 27.2 µM (inactive) | 87.1 µM (inactive) | 8.53 |  | 27.4 µM (inactive) | > 100 µM (inactive) | > 100 µM (inactive) | > 100 µM (inactive) | 63.2 µM (inactive) | 39.9 µM (inactive) | > 100 µM (inactive) | > 100 µM (inactive) | 7.96 µM (inactive) | 59.8 µM (inactive) | 35.5 µM (inactive) | > 100 µM (inactive) | 25.1 µM (inactive) | 53.7 µM (inactive) | 8.99 µM (inactive)
15 | O=C(Nc1ccc([N+](=O)[O-])cc1)C(=O)C(C(=O)c1ccccc1F)C1OC(=O)c2ccccc21 (configuration not stated) | 16.6 µM (inactive) | 25.9 µM (inactive) | 31.6 µM (inactive) | 29.9 | 17.7 µM (inactive) | 26 µM (inactive) | 16.6 µM (inactive) | 14.7 µM (inactive) | 50.9 µM (inactive) | 40.3 µM (inactive) | 46.9 µM (inactive) | 30.8 µM (inactive) | 30.2 µM (inactive) | 21.9 µM (inactive) | 49 µM (inactive) | 59.4 µM (inactive) | 40.4 µM (inactive) | 58.1 µM (inactive) |  | 25.2 µM (inactive)
16 | CCNC(=S)NNC(=O)c1nsc2ccccc12 | 31 µM (inactive) | > 100 µM (inactive) | 96.8 µM (inactive) | 38.2 | 64.9 µM (inactive) | 50.9 µM (inactive) |  |  | 44.6 µM (inactive) |  | > 100 µM (inactive) | 55.1 µM (inactive) | 34.5 µM (inactive) | 64 µM (inactive) | > 100 µM (inactive) |  | 18.7 µM (inactive) | 73.6 µM (inactive) | 49.1 µM (inactive) | 63.8 µM (inactive)
